The results in this text go back to ChEMBL document CHEMBL3351298, “Design, synthesis and evaluation of novel tacrine-(β-carboline) hybrids as multifunctional agents for the treatment of Alzheimer's disease” (Bioorg Med Chem, 2014).

The nature of one series: in vitro. As to conditions: PAMPA. For orientation: In PAMPA a lipid-coated filter parts donor from acceptor wells.
Series [1] has as its target Amyloid-beta precursor protein (Homo sapiens) (UniProt P05067). The series can be described thus: Inhibition of amyloid beta (1 to 42) (unknown origin) self-induced aggregation at 20 uM after 46 to 48 hrs by thioflavin-T based fluorometric assay.
A short description of series [2]: Retention time of the compound using CH3OH/H2O(0.1% Formic acid), 70% (v/v) of CH3OH gradient by HPLC analysis. It is filed as physicochemical.
Series [3] has as its target Acetylcholinesterase (Electrophorus electricus, UniProt O42275).
Description: Inhibition of electric eel AChE using acetylthiocholine iodide as substrate incubated for 6 mins by spectrophotometric method
For a further series, the target named is Cholinesterase (Equus caballus, UniProt P81908).
The target of series [4] is Acetylcholinesterase (Homo sapiens, UniProt P22303).
Description: Inhibition of human AChE using acetylthiocholine iodide as substrate incubated for 6 mins by spectrophotometric method
Series [5] can be described thus: Retention time of the compound using CH3OH/H2O(0.1% Formic acid), 75% (v/v) of CH3OH gradient by HPLC analysis. It is filed as physicochemical.
Series [6] can be described thus: Retention time of the compound using CH3OH/H2O (0.1% Formic acid), 60% (v/v) of CH3OH gradient by HPLC analysis. It is filed as physicochemical.
A short description of series [7]: Retention time of the compound using CH3OH/H2O (0.1% Formic acid), 65% (v/v) of CH3OH gradient by HPLC analysis. It is filed as physicochemical.
A short description of series [8]: Metal chelating activity of the compound assessed as Cu2+ complex formation at 25 uM by UV-vis spectrometry. Format: physicochemical.
In another series the test system is PC-12. The series can be described thus: Neuroprotective activity against H2O2-induced oxidative damage in rat PC12 cells assessed as increase in cell viability at 0.4 to 10 uM after 24 hrs by MTT assay. It is filed as functional, cell-based. Background: Tetrazolium assays rely on reduction of a dye to a coloured formazan, in cell work by metabolically active cells.

Series [9] can be described thus: Neuroprotective activity against H2O2-induced oxidative damage in rat PC12 cells assessed as increase in cell viability at 10 uM after 24 hrs by MTT assay. Format: functional, PC-12.
Series [10] can be described thus: Retention time of the compound using CH3OH/H2O(0.1% Formic acid), 45% (v/v) of CH3OH gradient by HPLC analysis. Format: physicochemical.
Series [11] addresses Acetylcholinesterase (Electrophorus electricus) (UniProt O42275). The series can be described thus: Mixed-type of inhibition in electric eel AChE by Lineweaver-Burk plot analysis.
Series [12] can be described thus: Retention time of the compound using CH3OH/H2O(0.1% Formic acid), 55% (v/v) of CH3OH gradient by HPLC analysis. Format: physicochemical.

Active and inactive are the calls of the source. The calls are words filed in the database; no cut-off is given here.

Sequence of Cholinesterase (P81908 whole entry): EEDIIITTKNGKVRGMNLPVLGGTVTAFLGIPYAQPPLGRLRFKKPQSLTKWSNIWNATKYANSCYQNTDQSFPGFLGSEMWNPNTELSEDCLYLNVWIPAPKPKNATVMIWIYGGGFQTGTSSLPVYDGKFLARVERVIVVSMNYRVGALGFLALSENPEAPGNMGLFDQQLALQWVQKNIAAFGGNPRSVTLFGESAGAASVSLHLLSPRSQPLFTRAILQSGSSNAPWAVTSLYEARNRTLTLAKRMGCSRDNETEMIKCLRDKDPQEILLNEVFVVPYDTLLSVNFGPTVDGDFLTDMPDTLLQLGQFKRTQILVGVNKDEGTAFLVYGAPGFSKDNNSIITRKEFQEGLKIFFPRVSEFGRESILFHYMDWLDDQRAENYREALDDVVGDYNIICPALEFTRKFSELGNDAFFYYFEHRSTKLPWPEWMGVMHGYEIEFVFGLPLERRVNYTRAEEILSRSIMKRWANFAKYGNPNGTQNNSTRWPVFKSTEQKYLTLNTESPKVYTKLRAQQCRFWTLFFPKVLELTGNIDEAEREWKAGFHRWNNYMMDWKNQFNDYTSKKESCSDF
Sequence of Acetylcholinesterase (Electrophorus electricus, UniProt O42275) (O42275 whole entry): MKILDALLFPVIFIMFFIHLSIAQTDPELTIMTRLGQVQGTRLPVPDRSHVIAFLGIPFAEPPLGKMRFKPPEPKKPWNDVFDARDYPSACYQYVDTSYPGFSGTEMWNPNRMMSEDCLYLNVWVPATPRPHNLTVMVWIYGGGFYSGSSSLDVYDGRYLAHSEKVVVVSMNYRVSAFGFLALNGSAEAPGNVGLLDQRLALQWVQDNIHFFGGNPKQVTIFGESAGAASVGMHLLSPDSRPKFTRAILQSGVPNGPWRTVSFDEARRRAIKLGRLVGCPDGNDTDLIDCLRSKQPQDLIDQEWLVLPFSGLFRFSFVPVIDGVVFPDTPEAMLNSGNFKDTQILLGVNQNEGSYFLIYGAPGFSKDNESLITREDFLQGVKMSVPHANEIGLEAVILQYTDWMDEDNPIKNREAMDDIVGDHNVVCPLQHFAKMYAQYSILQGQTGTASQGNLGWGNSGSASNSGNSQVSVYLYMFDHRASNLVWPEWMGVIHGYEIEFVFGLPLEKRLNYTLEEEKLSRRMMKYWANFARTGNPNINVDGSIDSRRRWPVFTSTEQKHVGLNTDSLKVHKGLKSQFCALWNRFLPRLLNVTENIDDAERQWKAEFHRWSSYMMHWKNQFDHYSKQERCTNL
Sequence of Acetylcholinesterase (Homo sapiens, UniProt P22303) (P22303 whole entry): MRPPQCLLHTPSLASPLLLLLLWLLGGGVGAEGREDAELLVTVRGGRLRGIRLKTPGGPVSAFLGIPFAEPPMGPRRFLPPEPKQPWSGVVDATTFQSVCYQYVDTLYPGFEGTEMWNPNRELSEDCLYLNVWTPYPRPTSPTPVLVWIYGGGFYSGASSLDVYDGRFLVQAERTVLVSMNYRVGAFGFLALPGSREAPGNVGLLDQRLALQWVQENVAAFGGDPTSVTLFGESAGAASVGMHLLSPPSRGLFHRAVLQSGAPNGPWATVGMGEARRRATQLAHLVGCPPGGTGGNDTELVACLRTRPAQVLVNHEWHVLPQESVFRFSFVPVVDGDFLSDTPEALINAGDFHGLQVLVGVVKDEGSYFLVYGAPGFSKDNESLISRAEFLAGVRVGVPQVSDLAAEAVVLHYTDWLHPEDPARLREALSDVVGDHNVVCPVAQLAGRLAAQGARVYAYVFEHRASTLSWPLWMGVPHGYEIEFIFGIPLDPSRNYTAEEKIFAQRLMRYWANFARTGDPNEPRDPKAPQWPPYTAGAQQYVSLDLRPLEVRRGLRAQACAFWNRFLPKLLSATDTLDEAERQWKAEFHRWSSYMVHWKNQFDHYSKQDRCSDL
Sequence of Amyloid-beta precursor protein (Homo sapiens) (P05067 whole entry): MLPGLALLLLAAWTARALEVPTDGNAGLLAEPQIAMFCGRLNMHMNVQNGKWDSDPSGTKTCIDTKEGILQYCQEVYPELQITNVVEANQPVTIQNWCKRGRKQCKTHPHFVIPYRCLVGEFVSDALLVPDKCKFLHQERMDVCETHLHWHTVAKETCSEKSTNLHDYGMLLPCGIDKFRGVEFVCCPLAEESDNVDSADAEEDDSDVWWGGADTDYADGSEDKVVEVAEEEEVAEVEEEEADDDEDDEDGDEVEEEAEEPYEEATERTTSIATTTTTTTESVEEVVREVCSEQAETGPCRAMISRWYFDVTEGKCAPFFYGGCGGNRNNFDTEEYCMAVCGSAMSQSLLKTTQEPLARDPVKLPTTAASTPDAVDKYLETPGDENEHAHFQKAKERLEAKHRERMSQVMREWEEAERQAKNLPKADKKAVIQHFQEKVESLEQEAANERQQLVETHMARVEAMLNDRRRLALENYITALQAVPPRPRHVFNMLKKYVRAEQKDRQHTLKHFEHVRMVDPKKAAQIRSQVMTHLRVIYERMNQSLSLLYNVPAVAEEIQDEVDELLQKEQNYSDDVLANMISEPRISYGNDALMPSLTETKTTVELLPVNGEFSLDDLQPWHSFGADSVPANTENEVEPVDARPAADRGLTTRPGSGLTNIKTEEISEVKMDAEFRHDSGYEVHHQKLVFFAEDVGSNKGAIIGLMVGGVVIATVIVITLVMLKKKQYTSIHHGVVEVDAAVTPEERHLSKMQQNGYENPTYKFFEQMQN
Sequence of Acetylcholinesterase (Electrophorus electricus) (O42275 24-633 limits assumed): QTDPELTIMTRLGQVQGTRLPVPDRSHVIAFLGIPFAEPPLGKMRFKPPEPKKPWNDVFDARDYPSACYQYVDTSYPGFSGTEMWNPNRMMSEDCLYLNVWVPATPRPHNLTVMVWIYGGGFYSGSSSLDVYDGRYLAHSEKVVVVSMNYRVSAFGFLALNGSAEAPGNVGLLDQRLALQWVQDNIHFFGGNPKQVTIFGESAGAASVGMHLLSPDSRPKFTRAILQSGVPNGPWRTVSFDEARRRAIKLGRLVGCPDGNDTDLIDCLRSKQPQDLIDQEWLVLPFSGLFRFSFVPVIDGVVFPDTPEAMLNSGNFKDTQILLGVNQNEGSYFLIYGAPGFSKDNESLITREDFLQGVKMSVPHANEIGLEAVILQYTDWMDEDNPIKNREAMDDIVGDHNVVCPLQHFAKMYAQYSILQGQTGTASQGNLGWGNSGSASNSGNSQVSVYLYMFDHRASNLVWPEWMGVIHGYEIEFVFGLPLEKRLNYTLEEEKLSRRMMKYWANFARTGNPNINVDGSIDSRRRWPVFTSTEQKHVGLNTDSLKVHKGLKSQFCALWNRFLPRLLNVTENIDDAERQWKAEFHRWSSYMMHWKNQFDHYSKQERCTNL

Take `NCCc1ccc(O)c(O)c1` [DOPAMINE]: in “in vitro”, the Papp came out at 0.15 ×10⁻⁶ cm/s.

`CN1C(C(=O)Nc2ccccn2)=C(O)c2ccccc2S1(=O)=O` [PIROXICAM] displayed a Papp in the series “in vitro” of 1.2 ×10⁻⁶ cm/s.

As to `CC1c2[nH]c3ccccc3c2C[C@@H](C(=O)NCCCCCCNc2c3c(nc4ccccc24)CCCC3)N1C(=O)OC(C)(C)C` (stereo not given in full), in series [1], the inhibition is 42.3%. For the same compound, the Retention_time in series [2] is reported as 8.219 min. Also, the IC50 against Acetylcholinesterase [3] came out at 389 nM; on Cholinesterase it was 22.3 nM; on Acetylcholinesterase [4], 526 nM.

In turn, `Cc1nc(C(=O)NCCCCCCCCCCNc2c3c(nc4ccccc24)CCCC3)cc2c1[nH]c1ccccc12` had an inhibition in series [1] of 38.8%. The compound also had a Retention_time in series [5] of 7.918 min. Further, the figures for the concentration for half-maximal inhibition (IC50) at Acetylcholinesterase [3] and at Cholinesterase were 783 nM and 364 nM, respectively.

In series [1], `COc1ccc(-c2nc(C(=O)NCCCCCCNc3c4c(nc5ccccc35)CCCC4)cc3c2[nH]c2ccccc23)cc1` registered an inhibition of 25.2%. The compound also gave a Retention_time in [5] of 5.664 min. The IC50 at Acetylcholinesterase [3] amounted to 97.7 nM; on Cholinesterase, 329 nM; at Acetylcholinesterase [4], 149 nM.

`CC(C)(C)OC(=O)N1Cc2[nH]c3ccccc3c2C[C@H]1C(=O)NCCCCCCNc1c2c(nc3ccccc13)CCCC2`: the inhibition in [1] came out at 52.4%. The Retention_time in series [6] is recorded as 17.683 min. Moreover, the results for the IC50 against Acetylcholinesterase [3], against Cholinesterase and at Acetylcholinesterase [4] were 141 nM, 7.5 nM and 187 nM, respectively. The Papp in “in vitro” was determined as 5.81 ×10⁻⁶ cm/s.

`CC(C)(C)OC(=O)N[C@@H](Cc1c[nH]c2ccccc12)C(=O)NCCCCCCNc1c2c(nc3ccccc13)CCCC2` came in with an inhibition in [1] of 62.1%. Also, in series [2], the Retention_time is 4.417 min. Further, the IC50 on Acetylcholinesterase [3] was 67.3 nM; against Cholinesterase, 4.3 nM; against Acetylcholinesterase [4], 116 nM. This compound yielded a Papp in the series “in vitro” of 5.52 ×10⁻⁶ cm/s.

On to `O=C(NCCCCCCNc1c2c(nc3ccccc13)CCCC2)c1cc2c(cn1)[nH]c1ccccc12`, for which the inhibition in [1] amounted to 41.2%. The same compound displayed a Retention_time in series [6] of 15.899 min. Moreover, the values for the IC50 at Acetylcholinesterase [3], against Cholinesterase and against Acetylcholinesterase [4] were 32.4 nM, 41.3 nM and 91.8 nM, respectively. In the series “in vitro”, the Papp stood at 5.36 ×10⁻⁶ cm/s.

Take `O=C(NCCCCCCNc1c2c(nc3ccccc13)CCCC2)c1cc2c([nH]c3ccccc32)c(-c2ccc(F)cc2)n1`: the inhibition in series [1] came to 29.7%. In addition, the Retention_time in series [5] is recorded as 5.973 min. The IC50 against Acetylcholinesterase [3] amounted to 230 nM; at Cholinesterase, 205 nM; at Acetylcholinesterase [4] it was 306 nM.

In turn, `CCc1nc(C(=O)NCCCCCCNc2c3c(nc4ccccc24)CCCC3)cc2c1[nH]c1ccccc12` had an inhibition in [1] of 44.6%. In addition, the Retention_time in series [7] turned out to be 10.991 min. The IC50 is 51.7 nM on Acetylcholinesterase [3], 96.9 nM at Cholinesterase and 98.2 nM against Acetylcholinesterase [4]. The compound also came in with a Papp in the series “in vitro” of 4.97 ×10⁻⁶ cm/s.

In turn, `O=C(NCCCCCCNc1c2c(nc3ccccc13)CCCC2)[C@@H]1Cc2c([nH]c3ccccc23)CN1` registered an inhibition in series [1] of 65.8%. The results for the Activity result in [8] and in series [9] were “Active” and 73.67%, respectively. The outcome in the series with PC-12 was Active. Also, the Retention_time in [10] was 7.932 min. Moreover, the inhibition entry in series [11] was “Active”. In addition, the IC50 came out at 21.6 nM at Acetylcholinesterase [3], 39.8 nM at Cholinesterase and 63.2 nM on Acetylcholinesterase [4]. Also, in the series “in vitro”, the Papp turned out to be 5.6 ×10⁻⁶ cm/s.

As to `COC(=O)c1cc2c(cn1)[nH]c1ccccc12` [BETA-CCM], in series [1], the inhibition amounted to 22.1%. Moreover, the figures for the IC50 against Acetylcholinesterase [3] and against Cholinesterase were 63000 nM and > 100000 nM, respectively.

`Cc1nc(C(=O)NCCNc2c3c(nc4ccccc24)CCCC3)cc2c1[nH]c1ccccc12` returned an inhibition in series [1] of 42.4%. Moreover, in series [12], the Retention_time amounted to 10.74 min. Further, the IC50 was 485 nM at Acetylcholinesterase [3] and 539 nM against Cholinesterase.

Consider `CC1N[C@H](C(=O)NCCCCCCNc2c3c(nc4ccccc24)CCCC3)Cc2c1[nH]c1ccccc21` (stereo not given in full), for which the inhibition in series [1] turned out to be 48.6%. Also, the IC50 on Acetylcholinesterase [3] worked out at 156 nM; against Cholinesterase, 240 nM; at Acetylcholinesterase [4], 203 nM.

For `Cc1nc(C(=O)NCCCCCCNc2c3c(nc4ccccc24)CCCC3)cc2c1[nH]c1ccccc12`, the inhibition in series [1] amounted to 41.5%. The Retention_time in series [6] is 13.685 min. For the same compound, the IC50 worked out at 40.6 nM at Acetylcholinesterase [3], 93.6 nM at Cholinesterase and 92.6 nM at Acetylcholinesterase [4].

`Cc1nc(C(=O)NCCCCNc2c3c(nc4ccccc24)CCCC3)cc2c1[nH]c1ccccc12` yielded an inhibition in [1] of 39.3%. In series [12], this compound showed a Retention_time of 10.988 min. The IC50 against Acetylcholinesterase [3] worked out at 268 nM; at Cholinesterase it was 158 nM; at Acetylcholinesterase [4], 325 nM.

As to `CC(=O)N[C@@H](Cc1c[nH]c2ccccc12)C(=O)NCCCCCCNc1c2c(nc3ccccc13)CCCC2`, the inhibition in series [1] is 61.4%. The compound also had a Retention_time in [6] of 4.642 min. Also, the IC50 against Acetylcholinesterase [3] came to 115 nM; against Cholinesterase it was 6.2 nM; against Acetylcholinesterase [4], 153 nM.

On to `N[C@@H](Cc1c[nH]c2ccccc12)C(=O)NCCCCCCNc1c2c(nc3ccccc13)CCCC2`, for which the inhibition in [1] came to 66.3%. Moreover, in the series with PC-12, the outcome was Active. This compound gave a Retention_time in series [10] of 5.426 min. In addition, the IC50 at Acetylcholinesterase [3] came out at 51.6 nM; against Cholinesterase, 10.6 nM; on Acetylcholinesterase [4], 96.3 nM. This compound registered a Papp in the series “in vitro” of 4.45 ×10⁻⁶ cm/s.

For `Clc1cccc(Cl)c1N=C1NCCN1` [CLONIDINE], the Papp in the series “in vitro” was 3.8 ×10⁻⁶ cm/s.

`CC(=O)[C@H]1CC[C@H]2[C@@H]3CCC4=CC(=O)CC[C@]4(C)[C@H]3CC[C@]12C` [PROGESTERONE] showed a Papp in “in vitro” of 4.14 ×10⁻⁶ cm/s.

Turning to `Cc1nc(C(=O)NCCCCCCCCNc2c3c(nc4ccccc24)CCCC3)cc2c1[nH]c1ccccc12`, the inhibition in series [1] is 36.6%. Moreover, the Retention_time in series [2] amounted to 7.963 min. Besides, the IC50 turned out to be 107 nM on Acetylcholinesterase [3], 245 nM against Cholinesterase and 153 nM at Acetylcholinesterase [4].

In [1], `O=C(NCCCCCCNc1c2c(nc3ccccc13)CCCC2)c1cc2c([nH]c3ccccc32)c(-c2ccccc2)n1` had an inhibition of 26.1%. The same compound registered a Retention_time in [7] of 23.485 min. Besides, the IC50 against Acetylcholinesterase [3] was determined as 127 nM; against Cholinesterase it was 129 nM; against Acetylcholinesterase [4], 159 nM.

What is called Papp is the rate of passage across a membrane or cell layer, normalised by area and donor concentration. Low values mean poor permeation, high ones ready permeation. One may read the inhibition as the change of the read-out against control, counted positive when it falls. The IC50 is the point on the concentration scale where inhibition reaches its midpoint. A high value points to a need for much substance.
